Test results taken from patent publication US20160058753A1, “Nalmefene for Treatment of Patients with Mood Disorder” (H. LUNDBECK A/S, priority 2013, published 2016).

Legend:
[1] = tested on: patients with comorbid bipolar disorders; conditions: literature; cited from earlier work
[2] = tested on: patients with alcohol dependence; assay: Study 12013A: clinical efficacy on the reduction of alcohol consumption (HDD, TAC); format: in vivo, human; conditions: for HDD / TAC: patients with a mood disorder at baseline according to MINI assessment
From the text: (§1) The diagnosis of alcohol dependence was based on the DSM-IV-TR criteria. For this purpose, the investigator interviewed the patient in a structured way by using the Mini International Neuropsychiatric Interview (MINI) standardized interview (Lecrubier et al. The Mini International Neuropsychiatric Interview (M.I.N.I.). A short diagnostic structured interview: Reliability and validity according to the CIDI. European Psychiat. (1997), 12: 224-31). The M.I.N.I. is designed as a brief structured interview for the major Axis I psychiatric disorders in DSM-IV. Its use permits a standardised assessment of the diagnostic criteria. The M.I.N.I. interview was used at the screening visit. Clinicians used it after a training session. The M.I.N.I. approach was used to select patients with a mood disorder at baseline in Example 3.
(§2) Another approach to identify patients with a mood disorder is by defining mood disorder at baseline as any ongoing medical history coded by the Medical Dictionary for Regulatory Activities (MedDRA) Preferred Term as ‘Affective Disorder’, ‘Bipolar Disorder’, ‘Depressed Mood’, ‘Depression’, ‘Dysthymic Disorder’, ‘Hypomania’, ‘Major Depression’, ‘Mood Disorder Due To A General Medical Condition’ and/or ‘Seasonal Affective Disorder’. In examples 1 and 2 below patients classified with a mood disorder at baseline was selected based on said MedDRA terms.
The efficacy of nalmefene on the reduction of alcohol consumption in patients with alcohol dependence (DSM-IV) was evaluated in a multi-national, multi-site, randomised, double blind, two parallel group, placebo controlled 1 year safety study (Study 12013A). The efficacy was evaluated over 24 weeks of treatment. The study included outpatients, aged ≧18 years, with a primary diagnosis of alcohol dependence. […] Patients with psychiatric co-morbidity (that is, patients who used stable doses of antipsychotics and/or certain antidepressants) were also included unless the treatment of the psychiatric comorbidity had to take priority over treatment of the drinking problem, or was likely to interfere with study treatment or impairs treatment compliance.
The study included 639 patients, 482 of whom were treated with nalmefene 18 mg in an as-needed dosing regimen. A motivational and adherence enhancing intervention was administered to all the patients to support the patients in changing their behavior and to enhance adherence to treatment.
The efficacy of nalmefene on the reduction of alcohol consumption was measured using two co-primary endpoints: the change from baseline to Month 6 in the monthly number of heavy drinking days (HDDs) and the change from baseline to Month 6 in the average daily total alcohol consumption (TAC). A HDD was defined as a day with a consumption ≧60 g alcohol for men and ≧40 g for women.
(§3) Table 10 below outlines drinking variables and POMS TMD score patients from the 12013A study with a mood disorder at baseline who were classified based on MINI standardized interviews.

[3] = tested on: patients with alcohol dependence; assay: Study 12013A: clinical efficacy measured by POMS score; format: in vivo, human; conditions: for POMS TMD score: patients with a mood disorder at baseline according to MINI assessment
From the text: The term “POMS” is an abbreviation of “profile of mood states” and refers to a selfreport inventory scale developed to assess the effect of e.g. new medication on mood states and mood changes. The scale measures six domains: Tension-Anxiety, Depression-Rejection, Anger-Hostility, Vigour-Activity, Fatigue-Inertia, and Confusion-Bewilderment. A total mood disturbance (TMD) score can be calculated. In general, a lower POMS score indicates a better mood state than a higher score except for vigour-activity, for which a higher POMS score indicates a better mood state. The scale has been described e.g. by McNair et al., Profile of mood states. San Diego, Calif.: Educational and Industrial Testing Service and by Nyenhios and Yamamoto, J. Clin. Psychology, (1999), Vol. 55(1): 79-86.
as §1, §2
Assessment of POMs scores in Study 12013A was used to evaluate the effect of nalmefene on mood states and mood changes throughout the study. The change in POMS scores from baseline are illustrated in FIGS. 3-9.
In general, a lower POMS score indicates a better mood state than a higher score except for vigour, illustrated in FIGS. 7a and 7b, wherein a higher POMS score indicates a better mood state.
as §3

Mice (NMRI) [4] = assay: Forced swim test in mouse; format: in vivo; conditions: for Duration of immobility, Mean ± SEM: last 4 of 6 minutes
Procedure: The method, which detects antidepressant activity, follows that described by Porsolt et al (Arch. Int. Pharmacodyn., 229, 327-336, 1977). Mice forced to swim in a situation from which they cannot escape eventually become immobile. Antidepressants decrease the duration of immobility.
Nalmefene was tested as the sole active compound. Mice (NMRI) were individually placed in a cylinder (height=24 em; diameter=13 em) containing 10 cm water (22° C.) from which they cannot escape. The mice were placed in the water for 6 minutes and the duration of immobility during the last 4 minutes was measured. The latency to the first bout of immobility was also recorded starting from the beginning of the test.
10 mice were studied per group. The test was performed blind. Each test substance was evaluated at 3 doses (0.1, 1 and 10 mg/kg), administered s.c. 30 minutes before the test, and compared with a vehicle control group.
Imipramine (32 mg/kg s.c.), administered under the same experimental conditions, was used as reference substance. The experiment therefore included 8 groups.
Data with the test substance were analysed by comparing treated groups with vehicle control using one-way ANOVA followed by post-hoc Dunnett's tests. Data with the reference substance were analysed using unpaired Student's t tests. Due to the number of groups, the study was conducted over 2 separate sub-experiments, each subexperiment including 5 mice per group.

Rats (Wistar) = assay: Forced swim test in rats; format: in vivo, rat; conditions: 0.01, 0.1 and 1 mg/kg s.c. 30 minutes before the test, versus vehicle
Procedure: The method, which detects antidepressant activity, follows that described by Porsolt et al (Eur. J. Pharmacol., 47, 379-391, 1978). Rats forced to swim in a situation from which they cannot escape eventually become immobile. Antidepressants decrease the duration of immobility.
Nalmefene was tested as the sole active compound. Rats (Wistar) were individually placed in a cylinder (height=40 cm; diameter=20 cm) containing 13 cm water (25° C.) for 15 minutes on the first day of the experiment (Session 1) and were then placed back in the water 24 hours later for a 5 minute test (Session 2). The duration of immobility during the 5 minute test was measured. 6 rats were studied per group. The test was performed blind. Nalmefene was evaluated at 3 doses (0.01, 0.1 and 1 mg/kg), administered s.c. 30 minutes before the test, and compared with a vehicle control group.
Data with the test substance were analysed by comparing treated groups with vehicle control using one-way ANOVA followed by post-hoc Dunnett's tests. Data with the reference substance were analysed using unpaired Student's t tests.

Mice (NMRI) [5] = assay: Marble burying test in mouse; format: in vivo; conditions: for Number of marbles covered by sawdust, Mean ± SEM: 30 minute test, 25 marbles
From the text: The method, which detects anxiolytic/tranquillizing activity, follows that described by Broekkamp et al (Eur. J. Pharmacol., 126, 223-229, 1986). Mice exposed to novel objects (marbles) will bury them in the sawdust floor covering. Anxiolytics decrease the number of marbles buried at non-sedative doses.
Mice (NMRI) were individually placed in transparent plastic cages (33×21×18 cm) with 5 cm of sawdust on the floor and 25 marbles grouped in the centre of the cage. The cage was covered with an inverted plastic cage. Each test cage, together with the marbles, was impregnated with mouse odor before-hand by leaving 10 mice in the cage for 15 minutes. These mice then played no further role in the experiment.
Nalmefene was tested in the marble burying model as the sole active compound. The number of marbles covered by sawdust (⅔ or more) was counted at the end of a 30 minute test. 12 mice were studied per group. The test was performed blind. Nalmefene was evaluated at 3 doses (0.01, 0.1 and 1 mg/kg), administered s.c. 30 minutes before the test, and compared with a vehicle control group. Clobazam (8 mg/kg s.c.), administered under the same experimental conditions, was used as reference substance. The experiment therefore included 8 groups.
Data with Nalmefene were analysed by comparing treated groups with vehicle control using Kruskall-Wallis test followed by Mann-Whitney U tests. Data with the reference substance were analysed using Mann-Whitney U tests. Due to the number of groups, the study was conducted over 2 separate sub-experiments, each sub-experiment including 6 mice per group.

μ receptor = μ receptor (Homo sapiens, UniProt P35372); conditions: in vitro; cited from earlier work
Chain of μ receptor (P35372 whole entry): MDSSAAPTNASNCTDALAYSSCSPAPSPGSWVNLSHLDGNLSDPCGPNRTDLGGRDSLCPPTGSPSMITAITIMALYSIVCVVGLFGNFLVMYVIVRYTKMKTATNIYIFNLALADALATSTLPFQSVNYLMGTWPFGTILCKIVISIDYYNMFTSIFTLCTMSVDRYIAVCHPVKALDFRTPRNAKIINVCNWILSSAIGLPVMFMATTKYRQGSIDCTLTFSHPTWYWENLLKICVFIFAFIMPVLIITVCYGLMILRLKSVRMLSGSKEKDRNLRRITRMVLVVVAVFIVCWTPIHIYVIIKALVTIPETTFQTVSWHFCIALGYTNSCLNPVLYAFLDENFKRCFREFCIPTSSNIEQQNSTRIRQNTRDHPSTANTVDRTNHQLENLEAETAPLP

δ receptor = δ receptor (Homo sapiens, UniProt P41143); conditions: in vitro; cited from earlier work
Chain of δ receptor (P41143 whole entry): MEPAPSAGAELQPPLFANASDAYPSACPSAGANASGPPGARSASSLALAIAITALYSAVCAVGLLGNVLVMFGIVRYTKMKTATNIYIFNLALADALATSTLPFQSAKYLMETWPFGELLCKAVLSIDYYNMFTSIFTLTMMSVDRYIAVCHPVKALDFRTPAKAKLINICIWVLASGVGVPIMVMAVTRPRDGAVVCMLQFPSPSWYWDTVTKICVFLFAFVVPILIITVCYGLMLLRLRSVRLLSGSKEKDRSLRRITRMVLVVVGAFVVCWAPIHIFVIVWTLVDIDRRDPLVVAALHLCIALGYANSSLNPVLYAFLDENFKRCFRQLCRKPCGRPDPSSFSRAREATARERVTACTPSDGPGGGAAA

κ receptor = κ receptor (Homo sapiens, UniProt P41145); conditions: in vitro; cited from earlier work
Chain of κ receptor (P41145 whole entry): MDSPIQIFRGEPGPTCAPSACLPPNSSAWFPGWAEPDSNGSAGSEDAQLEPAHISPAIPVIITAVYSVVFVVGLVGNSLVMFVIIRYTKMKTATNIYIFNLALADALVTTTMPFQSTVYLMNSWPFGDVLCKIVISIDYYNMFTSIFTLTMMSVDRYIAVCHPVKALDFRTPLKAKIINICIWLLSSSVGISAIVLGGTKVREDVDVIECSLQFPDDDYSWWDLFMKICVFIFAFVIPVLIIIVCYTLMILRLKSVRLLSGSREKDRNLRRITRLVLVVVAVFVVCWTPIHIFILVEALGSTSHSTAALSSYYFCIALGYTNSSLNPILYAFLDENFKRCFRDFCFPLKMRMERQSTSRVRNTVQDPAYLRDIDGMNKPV

[6] = 1 year, nalmefene 18 mg as-needed
[7] = 0.1 mg/kg s.c. 30 minutes before the test
[8] = 1 mg/kg s.c. 30 minutes before the test
[9] = 10 mg/kg s.c. 30 minutes before the test
[10] = 0.01 mg/kg s.c. 30 minutes before the test

OCCOCCN1CCN(C2=Nc3ccccc3Sc3ccccc32)CC1 [quetiapine]
efficacy on measures of alcohol use and dependence [1]: ineffective

O=C1CCc2ccc(OCCCCN3CCN(c4cccc(Cl)c4Cl)CC3)cc2N1 [aripiprazole]
efficacy on measures of alcohol use and dependence [1]: ineffective

C=C1CC[C@@]2(O)[C@H]3Cc4ccc(O)c5c4[C@@]2(CCN3CC2CC2)[C@H]1O5 [Nalmefene, 17-(cyclopropylmethyl)-4,5-alpha-epoxy-6-methylenemorphinan-3,14-diol]
HDD [2, 6]: 6.0 | TAC [2, 6]: 20.8 g/day | HDD ([2]; Baseline, N=22): 16.0 | TAC ([2]; Baseline, N=22): 80.3 g/day | alcohol consumption ([2]; patients with a mood disorder at baseline (MedDRA)): significally reduced the alcohol consumption | difference between nalmefene and placebo in HDDs ([2]; patients with a mood disorder at baseline compared with patients without, week 24, FIG. 1): more pronounced | difference between nalmefene and placebo in TAC ([2]; patients with a mood disorder at baseline compared with patients without, week 24, FIG. 2): more pronounced | reducing TAC versus placebo ([2]; total patient group): superior to placebo | reducing the number of HDDs versus placebo ([2]; total patient group): superior to placebo | POMS TMD score [3, 6]: 37 | POMS TMD score ([3]; Baseline, N=22): 68 | general mood state (POMS data overall) ([3]; patients with a mood disorder): general mood state improves | POMS score at the end of the study versus placebo ([3]; patients with a mood disorder at baseline, FIGS. 3b-9b): better POMS score | POMS scores versus placebo: total mood disturbance, tension-anxiety, depression-rejection, anger-hostility and confusion ([3]; patients with a mood disorder at baseline, weeks 16-24, FIGS. 3b, 4b, 5b, 6b, 9b): better POMS scores | pattern in POMS score versus placebo ([3]; patients without a mood disorder at baseline, FIGS. 3a-9a): no pronounced difference between nalmefene and placebo | Duration of immobility, % compared with vehicle (Mice (NMRI) [4]; [7]): +6% | Duration of immobility, Mean ± SEM (Mice (NMRI) [4]; [7]): 206 ± 7 s | latency to immobility (Mice (NMRI) [4]; 1 mg/kg s.c. 30 minutes before the test, versus vehicle): did not significantly affect | Duration of immobility, Mean ± SEM (Mice (NMRI) [4]; [8]): 140 ± 22 s | Duration of immobility, % compared with vehicle (Mice (NMRI) [4]; 1 mg/kg s.c. 30 minutes before the test, p<0.05): −28% | Duration of immobility, % compared with vehicle (Mice (NMRI) [4]; [9]): −3% | Duration of immobility, Mean ± SEM (Mice (NMRI) [4]; [9]): 189 ± 11 s | effect in forced swim test (Mice (NMRI) [4]; 0.1 or 10 mg/kg s.c.): no effects | duration of immobility during the 5 minute test (Rats (Wistar)): No significant effect | Number of marbles covered by sawdust, % compared with vehicle (Mice (NMRI) [5]; [10]): −5% | Number of marbles covered by sawdust, Mean ± SEM (Mice (NMRI) [5]; [10]): 23.5 ± 1.2 | Number of marbles covered by sawdust, Mean ± SEM (Mice (NMRI) [5]; [7]): 21.5 ± 1.2 | Number of marbles covered by sawdust, % compared with vehicle (Mice (NMRI) [5]; 0.1 mg/kg s.c. 30 minutes before the test, p<0.01): −13% | Number of marbles covered by sawdust, % compared with vehicle (Mice (NMRI) [5]; 0.1 mg/kg s.c. 30 minutes before the test, p<0.01, listed as nalmefene): −13% | Number of marbles covered by sawdust, % compared with vehicle (Mice (NMRI) [5]; [8]): −10% | Number of marbles covered by sawdust, Mean ± SEM (Mice (NMRI) [5]; [8]): 22.4 ± 1.4 | effect on number of marbles covered by sawdust (Mice (NMRI) [5]; 0.01 or 1 mg/kg s.c.): no significant effects | activity at the μ receptor (μ receptor): antagonist activity | activity at the δ receptor (δ receptor): antagonist activity | activity at the κ receptor (κ receptor): partial agonist activity
